Broadly, the GI50 is the concentration at which growth is held to half of that of the control. A word on the TGI: it is the concentration giving total growth inhibition. A low value points to greater sensitivity of the cells.

Our source for the GI50 and TGI values is PubChem BioAssay (NCI).

Common to all, as to assay: DTP human tumour cell line panel, 48 h
Assay [1] deals with HOP-62 NSCLC.
In assay [2] the test system is SF-539 CNS.
In assay [3] the test system is RPMI-8226 leukemia.
Assay [4] deals with NCI-H522 lung.
Assay [5] relates to HT29 colon.
Assay [6] deals with OVCAR-8 ovarian.
In assay [7] the test system is M14 melanoma.
The subject of assay [8] is MCF7 breast.
Assay [9] concerns SK-MEL-5 melanoma.
Assay [10] has as its system MALME-3M melanoma.

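Where inhibition never reached the appropriate level, the endpoint shown equals the highest concentration tested. Otherwise, values were interpolated linearly from a five-concentration, 48-hour dose response in 96-well plates. GI50: concentration for 50% inhibition of growth. TGI denotes the concentration required for complete inhibition of growth.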

For `O=Cc1ccc(Oc2c3ccccc3nc3occc23)cc1`, the GI50 in assay [1] is 14.8 µM; in assay [2] it was 18.2 µM; in assay [3], 12.2 µM; in assay [4] it was 49.5 µM; in assay [5], 23.1 µM; in assay [6], 18.3 µM. The GI50 in assay [7] was 15.9 µM; in assay [8] it was 13.8 µM. The TGI was 37.9 µM in assay [1]; 37.5 µM in assay [2]; 48.3 µM in assay [3]; greater than 100 µM in [4]; 61.9 µM in assay [5]; 66.2 µM in assay [6]. Further, the concentration for total growth inhibition (TGI) is 30.3 µM in assay [7] and 32.2 µM in assay [8].

`C/C1=C\C/C=C(\C)[C@H]2CC(CC/C(C)=C/CC1)[C@@](C)(CO)O2`: the GI50 is 47.6 µM in [1]; greater than 100 µM in [2]; 40.6 µM in assay [3]; 23.3 µM in [4]; greater than 100 µM in assay [5]; greater than 100 µM in [6]. Further, the results for the GI50 in [7], in [8] and in assay [9] were 71.7 µM, 26.7 µM and 87.3 µM, respectively. The TGI in assay [1], in assay [2], in assay [3], in [4], in [5] and in assay [6] was greater than 100 µM each time. Also, the TGI was greater than 100 µM in [7], 77.7 µM in [8] and greater than 100 µM in [9].

For the compound `C[C@]12CCC3c4ccc(O)cc4CCC3C1Cc1ccc(O)cc12` (stereo partly specified), the GI50 in assay [2] was 6.08 µM; in [3] it was 3.75 µM; in assay [4], 3.5 µM; in [5] it was 6.13 µM; in [6], 15.8 µM; in [10], 10.8 µM. For the same compound, the GI50 is 3.8 µM in [7], 4.83 µM in assay [8] and 4.85 µM in assay [9]. Besides, the concentration for total growth inhibition (TGI) in [2] was determined as 20.8 µM; in assay [3], 18 µM; in assay [4], 12.8 µM; in assay [5], 20.6 µM; in assay [6] it was 33.8 µM; in assay [10] it was 29.1 µM. Also, the values for the TGI in [7], in assay [8] and in assay [9] were 13.6 µM, 17.8 µM and 16.8 µM, respectively.

With `Cc1ccc2c(Nc3cccc(Cl)c3F)ncc(NC(=O)c3csc4c(N)ncnc34)c2c1`, the 50% growth inhibitory concentration (GI50) was 0.359 µM in assay [1]; greater than 100 µM in [2]; 2.81 µM in assay [3]; greater than 100 µM in assay [4]; 0.0779 µM in [5]; greater than 76.8 µM in [6]. The GI50 in assay [7] was 0.0351 µM; in assay [8] it was greater than 100 µM; in assay [9], greater than 100 µM. For the same compound, the concentration for total growth inhibition (TGI) in assay [1], in [2], in assay [3], in assay [4], in assay [5] and in [6] was greater than 100 µM each time. Also, the values for the TGI in assay [7], in assay [8] and in [9] were 0.608 µM, greater than 100 µM and greater than 100 µM, respectively.

Consider `Cc1ncc(C(=O)Nc2ccc(CN3CCN(C)CC3)c(C(F)(F)F)c2)cc1C#Cc1cnc(N)c2ncccc12`, for which the GI50 is 0.704 µM in assay [1]; 1.12 µM in assay [2]; 0.538 µM in assay [3]; 1.05 µM in assay [4]; 0.0435 µM in [5]; 1.1 µM in assay [6]. For the same compound, the values for the concentration for 50% growth inhibition (GI50) in assay [10], in assay [8] and in assay [9] were less than 0.0177 µM, 1.61 µM and 1.02 µM, respectively. The concentration for total growth inhibition (TGI) was 11.9 µM in assay [1]; 2.59 µM in assay [2]; 3.98 µM in assay [3]; 3.96 µM in assay [4]; 2.08 µM in assay [5]; 4.86 µM in assay [6]. For the same compound, the TGI was 0.135 µM in assay [10], 4.36 µM in assay [8] and 4.44 µM in [9].

For `CCN(CC)CCCOc1cc(O)c2c(=O)cc(-c3ccccc3)oc2c1`, the GI50 in assay [1] was 5.29 µM; in assay [2], 6.65 µM; in assay [3], 9.71 µM; in assay [4], 12.1 µM; in [5] it was 2.36 µM; in assay [10], 9.81 µM. For the same compound, the GI50 in assay [8] was 4.16 µM; in assay [9], 3.16 µM. Further, the TGI was found to be 19.4 µM in assay [1]; 19.5 µM in assay [2]; 28.4 µM in [3]; 26.7 µM in assay [4]; 12.7 µM in assay [5]; 28.2 µM in assay [6]. In addition, the results for the TGI in [10], in assay [8] and in [9] were 25 µM, 16.2 µM and 11.8 µM, respectively.

Turning to `CNNC(=N\S(=O)(=O)c1cc(C(=O)Nc2ccc(Cl)cc2)c(Cl)cc1SCc1ccccc1)/N=C/c1ccc([N+](=O)[O-])s1`, the GI50 in assay [1] is greater than 36 µM; in assay [2], greater than 100 µM; in assay [4], greater than 100 µM; in assay [5] it was greater than 28.2 µM; in assay [6], greater than 100 µM; in [10], greater than 100 µM. For the same compound, the values for the GI50 in assay [7], in [8] and in assay [9] were 10.1 µM, greater than 100 µM and 6.57 µM, respectively. For the same compound, the concentration for total growth inhibition (TGI) in [1], in assay [2], in assay [4], in assay [5], in assay [6] and in [10] was greater than 100 µM throughout. For the same compound, the concentration for total growth inhibition (TGI) in assay [7] is greater than 100 µM; in assay [8] it was greater than 100 µM; in assay [9] it was greater than 45.9 µM.

As to `O=C(OCC1OC(OC(=O)c2cc(O)c(O)c(OC(=O)c3cc(O)c(O)c(O)c3)c2)C(OC(=O)c2cc(O)c(O)c(OC(=O)c3cc(O)c(O)c(O)c3)c2)C(OC(=O)c2cc(O)c(O)c(OC(=O)c3cc(O)c(O)c(O)c3)c2)C1OC(=O)c1cc(O)c(O)c(OC(=O)c2cc(O)c(O)c(O)c2)c1)c1cc(O)c(O)c(OC(=O)c2cc(O)c(O)c(O)c2)c1` (stereo unspecified), the GI50 in assay [1] was greater than 50 µM; in assay [2], 11.7 µM; in assay [3], 20.8 µM; in assay [4], 8.71 µM; in assay [5], 26.4 µM; in assay [6] it was 25.6 µM. Further, the GI50 in assay [7] was 25.3 µM; in assay [8], 13.2 µM; in [9], 10 µM. The total growth inhibition concentration (TGI) in assay [1] was greater than 50 µM; in [2], 35.1 µM; in assay [3], greater than 50 µM; in assay [4], 29.7 µM; in assay [5], greater than 50 µM; in [6], greater than 50 µM. In addition, the total growth inhibition concentration (TGI) in [7] is greater than 50 µM; in assay [8], 34.7 µM; in [9] it was 27.9 µM.
